The target of assay [1] is T1, Interleukin-1 receptor-associated kinase 4 (Homo sapiens, UniProt Q9NWZ3).
T1 sequence (Q9NWZ3 whole entry): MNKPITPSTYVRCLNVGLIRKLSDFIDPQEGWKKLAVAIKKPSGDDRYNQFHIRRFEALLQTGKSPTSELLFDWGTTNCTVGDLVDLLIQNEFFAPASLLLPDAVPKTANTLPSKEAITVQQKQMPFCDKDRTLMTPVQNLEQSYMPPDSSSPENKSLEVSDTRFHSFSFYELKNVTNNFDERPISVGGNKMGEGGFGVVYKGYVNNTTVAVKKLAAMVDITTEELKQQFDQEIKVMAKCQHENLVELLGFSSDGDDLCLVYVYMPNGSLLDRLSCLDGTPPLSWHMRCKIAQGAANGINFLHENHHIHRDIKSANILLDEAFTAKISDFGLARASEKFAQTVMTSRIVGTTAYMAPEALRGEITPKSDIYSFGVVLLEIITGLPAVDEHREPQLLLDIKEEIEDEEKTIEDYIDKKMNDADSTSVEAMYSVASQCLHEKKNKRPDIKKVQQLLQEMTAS

In assay [2] the target is T2, Peroxisomal acyl-coenzyme A oxidase 1 (Homo sapiens, UniProt Q15067).
T2 sequence (Q15067 whole entry): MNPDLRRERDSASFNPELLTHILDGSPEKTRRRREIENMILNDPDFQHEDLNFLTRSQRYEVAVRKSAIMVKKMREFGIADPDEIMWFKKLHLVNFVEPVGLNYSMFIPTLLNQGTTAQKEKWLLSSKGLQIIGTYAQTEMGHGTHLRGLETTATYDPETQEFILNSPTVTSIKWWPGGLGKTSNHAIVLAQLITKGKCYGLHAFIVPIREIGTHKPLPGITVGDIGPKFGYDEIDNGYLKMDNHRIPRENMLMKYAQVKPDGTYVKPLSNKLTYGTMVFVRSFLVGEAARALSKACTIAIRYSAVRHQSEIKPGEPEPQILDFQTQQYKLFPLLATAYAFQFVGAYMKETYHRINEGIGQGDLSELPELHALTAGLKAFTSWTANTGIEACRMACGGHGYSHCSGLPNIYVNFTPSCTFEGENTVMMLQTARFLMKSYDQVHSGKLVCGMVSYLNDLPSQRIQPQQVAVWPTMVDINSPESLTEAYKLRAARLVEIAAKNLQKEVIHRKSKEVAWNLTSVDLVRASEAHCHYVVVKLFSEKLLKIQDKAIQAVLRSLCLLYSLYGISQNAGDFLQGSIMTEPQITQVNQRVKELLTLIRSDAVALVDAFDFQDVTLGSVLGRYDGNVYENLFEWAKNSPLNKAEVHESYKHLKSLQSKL

In assay [3] the target is T3, Phosphatidylinositol 5-phosphate 4-kinase type-2 gamma (Homo sapiens, UniProt Q8TBX8).
T3 sequence (Q8TBX8 whole entry): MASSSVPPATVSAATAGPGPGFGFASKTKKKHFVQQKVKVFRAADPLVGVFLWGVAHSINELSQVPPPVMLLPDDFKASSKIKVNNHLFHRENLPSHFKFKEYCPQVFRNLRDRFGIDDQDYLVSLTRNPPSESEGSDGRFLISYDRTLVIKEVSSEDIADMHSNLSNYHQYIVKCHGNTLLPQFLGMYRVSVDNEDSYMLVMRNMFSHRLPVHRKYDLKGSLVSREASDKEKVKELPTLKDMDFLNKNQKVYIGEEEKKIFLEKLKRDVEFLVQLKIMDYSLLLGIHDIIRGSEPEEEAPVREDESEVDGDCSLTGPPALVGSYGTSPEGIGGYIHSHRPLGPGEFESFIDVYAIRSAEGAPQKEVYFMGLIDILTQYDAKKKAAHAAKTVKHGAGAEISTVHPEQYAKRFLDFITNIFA

In assay [4] the target is T4, Serine/threonine-protein kinase TAO1 (Homo sapiens, UniProt Q7L7X3).
T4 sequence (Q7L7X3 whole entry): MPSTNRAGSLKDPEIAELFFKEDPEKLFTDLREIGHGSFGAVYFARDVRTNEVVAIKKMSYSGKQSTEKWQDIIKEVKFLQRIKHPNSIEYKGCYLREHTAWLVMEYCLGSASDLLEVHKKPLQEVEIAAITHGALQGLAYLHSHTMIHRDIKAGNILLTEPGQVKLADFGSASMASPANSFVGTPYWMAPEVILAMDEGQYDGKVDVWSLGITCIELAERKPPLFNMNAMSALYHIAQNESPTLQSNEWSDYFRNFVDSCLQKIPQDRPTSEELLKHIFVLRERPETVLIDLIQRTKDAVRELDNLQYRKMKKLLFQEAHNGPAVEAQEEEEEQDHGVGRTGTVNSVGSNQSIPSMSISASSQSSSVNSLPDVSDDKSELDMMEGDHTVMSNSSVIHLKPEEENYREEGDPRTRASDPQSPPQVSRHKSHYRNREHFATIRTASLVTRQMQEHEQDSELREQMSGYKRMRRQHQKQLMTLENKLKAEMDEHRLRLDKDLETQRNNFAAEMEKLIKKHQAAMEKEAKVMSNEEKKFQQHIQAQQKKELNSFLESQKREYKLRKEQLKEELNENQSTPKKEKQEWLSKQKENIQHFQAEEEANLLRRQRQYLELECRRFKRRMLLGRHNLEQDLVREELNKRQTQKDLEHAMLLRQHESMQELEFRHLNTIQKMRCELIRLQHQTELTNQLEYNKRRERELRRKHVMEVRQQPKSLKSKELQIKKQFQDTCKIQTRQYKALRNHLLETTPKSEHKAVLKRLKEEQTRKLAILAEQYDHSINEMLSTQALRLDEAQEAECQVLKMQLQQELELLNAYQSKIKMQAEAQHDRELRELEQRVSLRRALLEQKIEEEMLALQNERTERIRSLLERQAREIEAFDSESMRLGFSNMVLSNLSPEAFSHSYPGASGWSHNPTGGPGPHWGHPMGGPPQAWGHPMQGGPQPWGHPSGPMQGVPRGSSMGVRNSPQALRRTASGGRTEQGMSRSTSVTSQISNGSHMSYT

Assay [5] addresses Ribosomal protein S6 kinase beta-1 (Homo sapiens, UniProt P23443).

pKd: −log10 of the molar value. Active and inactive are the calls of the source. Rule as the data show it, for most assays here: actives have a measured Kd and inactives only a lower limit.

The Kd is the equilibrium constant for the complex coming apart. Usually pKd stands for −log10 of the Kd, conventionally taken in molar units.
Also: in the data inactive means no Kd found up to 30 µM.

Sequence of Ribosomal protein S6 kinase beta-1 (P23443 whole entry): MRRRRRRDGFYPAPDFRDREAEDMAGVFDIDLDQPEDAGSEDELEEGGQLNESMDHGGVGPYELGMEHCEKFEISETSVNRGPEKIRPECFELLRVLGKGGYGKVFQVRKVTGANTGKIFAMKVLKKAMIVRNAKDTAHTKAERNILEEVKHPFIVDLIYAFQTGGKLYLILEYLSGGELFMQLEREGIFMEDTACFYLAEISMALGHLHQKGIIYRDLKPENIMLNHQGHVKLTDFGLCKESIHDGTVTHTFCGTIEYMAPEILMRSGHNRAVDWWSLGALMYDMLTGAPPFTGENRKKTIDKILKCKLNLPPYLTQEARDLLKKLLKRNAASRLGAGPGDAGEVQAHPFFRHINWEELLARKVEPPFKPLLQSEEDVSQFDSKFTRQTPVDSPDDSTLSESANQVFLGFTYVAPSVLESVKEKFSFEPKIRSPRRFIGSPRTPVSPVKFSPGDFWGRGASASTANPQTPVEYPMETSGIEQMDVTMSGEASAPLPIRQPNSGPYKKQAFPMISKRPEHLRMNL

For the molecule `Cn1c(=O)n(-c2ccc(C(C)(C)C#N)cc2)c2c3cc(-c4cnc5ccccc5c4)ccc3ncc21` [DACTOLISIB], the Kd in assay [1], in assay [2] and in assay [3] was > 30 µM (inactive) in each case.
As to `O=c1[nH]c([C@@H]2CCCN2)nc2c1oc1ccc(Cl)cc12`, the Kd in assay [1], in assay [2], in assay [4] and in assay [3] was > 30 µM (inactive) in each case.
With `O=C(O)c1ccc2c(c1)nc(Nc1cccc(Cl)c1)c1ccncc12` [SILMITASERTIB], the Kd in assay [5] is > 30 µM (inactive); in assay [1], > 30 µM (inactive); in assay [4], 2.08 µM (active); in assay [3], 1.11 µM (active).
On to `CNC(=O)c1ccc(Nc2ncc(C(F)(F)F)c(NCc3nccnc3N(C)S(C)(=O)=O)n2)cc1` [DEFACTINIB], for which the Kd in assay [5] is > 30 µM (inactive); in assay [1] it was > 30 µM (inactive); in assay [4] it was 3.23 µM (active); in assay [3], > 30 µM (inactive).
On to `CN(c1ncccc1CNc1nc(Nc2ccc3c(c2)CC(=O)N3)ncc1C(F)(F)F)S(C)(=O)=O` [PF-00562271], for which the Kd in assay [2] and in assay [3] was > 30 µM (inactive) throughout.
Regarding `CN1CCN(c2nc(C3=C(c4c[nH]c5ccccc45)C(=O)NC3=O)c3ccccc3n2)CC1` [SOTRASTAURIN], the Kd in assay [5], in assay [1] and in assay [3] was > 30 µM (inactive) each time.
On to `N#CCNC(=O)c1ccc(-c2ccnc(Nc3ccc(N4CCOCC4)cc3)n2)cc1` [MOMELOTINIB], for which the Kd in assay [5], in assay [1], in assay [4] and in assay [3] was > 30 µM (inactive) throughout.
Regarding `COc1cc2c(Oc3ccc4[nH]c(C)cc4c3F)ncnc2cc1OCCCN1CCCC1` [CEDIRANIB], the Kd in assay [2] is > 30 µM (inactive).
As for `CCN1CCN(Cc2ccc(Nc3ncc(F)c(-c4cc(F)c5nc(C)n(C(C)C)c5c4)n3)nc2)CC1` [ABEMACICLIB], the Kd in assay [5], in assay [1] and in assay [3] was > 30 µM (inactive) in each case.
As to `Cn1cnc2c(F)c(Nc3ccc(Br)cc3Cl)c(C(=O)NOCCO)cc21` [SELUMETINIB], the Kd in assay [2] is > 30 µM (inactive).
For the molecule `COc1cc2c(N3CCN(C(=O)Nc4ccc(OC(C)C)cc4)CC3)ncnc2cc1OCCCN1CCCCC1` [TANDUTINIB], the Kd in assay [2] is > 30 µM (inactive).
In the case of `C=CCN(/C=C1/C(=O)O[C@H](COC)[C@@]2(C)C1=C(O)C(=O)C1=C2[C@H](OC(C)=O)C[C@]2(C)C(=O)CC[C@@H]12)CC=C` [SONOLISIB], the Kd in assay [5], in assay [1], in assay [4] and in assay [3] was > 30 µM (inactive) in each case.
Consider `CCN(CCCOc1ccc2c(Nc3cc(CC(=O)Nc4cccc(F)c4)n[nH]3)ncnc2c1)CCOP(=O)(O)O` [BARASERTIB], for which the Kd in assay [5], in assay [1], in assay [2] and in assay [3] was > 30 µM (inactive) throughout.
With `CC1(C)CNc2cc(NC(=O)c3cccnc3NCc3ccncc3)ccc21` [MOTESANIB], the Kd in assay [2] was > 30 µM (inactive).
With `COc1cc(Nc2ncc(F)c(Nc3ccc4c(n3)N(COP(=O)(O)O)C(=O)C(C)(C)O4)n2)cc(OC)c1OC` [FOSTAMATINIB], the Kd in assay [5], in assay [1], in assay [2] and in assay [4] was > 30 µM (inactive) each time.
With `Cc1cc(C(=O)Nc2cc(Oc3ccc4nc(NC(=O)C5CC5)cn4n3)ccc2C)n(C)n1` [TAK-593], the Kd in assay [5], in assay [1], in assay [4] and in assay [3] was > 30 µM (inactive) in each case.
For `C=CCn1c(=O)c2cnc(Nc3ccc(N4CCN(C)CC4)cc3)nc2n1-c1cccc(C(C)(C)O)n1` [ADAVOSERTIB], the Kd in assay [5], in assay [1], in assay [2] and in assay [3] was > 30 µM (inactive) throughout.
In the case of `CCc1nc(C(N)=O)c(Nc2ccc(N3CCC(N4CCN(C)CC4)CC3)c(OC)c2)nc1NC1CCOCC1` [GILTERITINIB], the Kd in assay [5], in assay [4] and in assay [3] was > 30 µM (inactive) throughout.
For the molecule `CN(C)C/C=C/C(=O)Nc1cc2c(Nc3ccc(F)c(Cl)c3)ncnc2cc1O[C@H]1CCOC1` [AFATINIB], the Kd in assay [2] is > 30 µM (inactive).
In the case of `CCOc1ccn(-c2ccc(F)cc2)c(=O)c1C(=O)Nc1ccc(Oc2ccnc(N)c2Cl)c(F)c1` [BMS-777607], the Kd in assay [1], in assay [4] and in assay [3] was > 30 µM (inactive) each time.
Take `COc1cc(F)c(F)c(Nc2ccc(I)cc2F)c1NS(=O)(=O)C1(C[C@H](O)CO)CC1` [REFAMETINIB]: the Kd in assay [5], in assay [1], in assay [4] and in assay [3] was > 30 µM (inactive) in each case.
On to `COc1cc2ncnc3c2cc1OCCCCCN(C)Cc1ccc(Br)cc1N3` [JNJ-26483327], for which the Kd in assay [1], in assay [2], in assay [4] and in assay [3] was > 30 µM (inactive) each time.
For the molecule `O=S(=O)(c1cccc2cnccc12)N1CCCNCC1` [FASUDIL], the Kd in assay [2] and in assay [3] was > 30 µM (inactive) in each case.
`C[C@]1(O)C[C@@H](c2nc(-c3ccc4ccc(-c5ccccc5)nc4c3)c3c(N)nccn32)C1` [LINSITINIB]: the figures for the Kd in assay [2] and in assay [3] were > 30 µM (inactive) and 5.57 µM (active), respectively.
Regarding `CC1(COc2ccc3c(c2)ncn3-c2ccc3cccc(N4CCC(N)CC4)c3n2)COC1` [CRENOLANIB], the Kd in assay [5], in assay [2] and in assay [3] was > 30 µM (inactive) in each case. This molecule also showed a pKd in assay [4] of 5.91.

The values above are taken from ChEMBL document CHEMBL3991601, “The target landscape of clinical kinase drugs” (Science, 2017).
